# Data reported in patent publication US8530680B2, “System and method for controlling growth of microorganisms with brominated furanones” (Syracuse University, priority 2008, dated 2013).
# Experiments:
# [1] = test system: Trametes versicolor strain TV57MAD277; experiment: Fungal growth on MEA plates with furanone; type: cell-based; parameters: key to growth on plate, TV57MAD277: −: No growth was observed; +: normal growth was seen; settings: for growth inhibition test, inhibitory concentration, TV57MAD277: tested at 1, 5, 30, 60 μg/mL, 7 days; for growth on plate, TV57MAD277: 60 μg/mL, 7 days at 30° C.
# Experimental: (§1) This Example examines the effect of brominated furanones on the growth of fungi associated with damage to building material. Six fungal strains were the subject of these experiments; Gloeophyllum trabeum (strains GT598 and GT599), Chaetomium globosum (wildtype strain and CG572), and Trametes versicolor (strains TV7B2-59 and TV57MAD277). The species were developed on 2% Malt-Extract Agar (MEA) plates and stored inverted at 4° C. The stocks were refreshed by streaking new plates every two months.
# (§2) The brominated and non-brominated furanones were added to MAE agar plates at different concentrations. The brominated furanones were dissolved in either ethanol (“EtOH”) or methanol (“MeOH”) as stock solutions, as shown in Table 5. The non-brominated furanones were purchased from Sigma (St. Louis, Mo.). The furanone stocks were stored at 4° C.
# (§3) MAE agar plates containing the same amounts of ethanol/methanol were also prepared as negative controls to eliminate any solvent effects. The plates were prepared using either 90 mm or 60 mm petri dishes and were stored inverted at 4° C. until use.
# (§4) Different concentrations of furanones were studied to compare their antifungal activities. The plates were inoculated with the six fungal strains using a platinum loop and were incubated upside down at 30° C. for 7 days to monitor the growth. The initial screening was performed using a single 60 μg/mL furanone concentration.
# [2] = test system: Chaetomium globosum wildtype strain (CG); experiment: Fungal growth on MEA plates with furanone; type: cell-based; parameters: key to growth on plate, CG: −: No growth was observed; +: normal growth was seen; settings: for growth inhibition test, inhibitory concentration, CG: tested at 1, 5, 30, 60 μg/mL, 7 days; for growth on plate, CG: 60 μg/mL, 7 days at 30° C.
# Experimental: as §1, §2, §3, §4
# [3] = test system: P. aeruginosa strain PAO1; experiment: Microplate based planktonic growth assay of P. aeruginosa; type: cell-based, Pseudomonas aeruginosa; settings: for reduction of specific growth rate compared to furanone-free control: planktonic growth
# Experimental: The antimicrobial activities of furanones on the planktonic growth of P. aeruginosa strain PAO1 was examined using a microplate based growth assay. An overnight culture of the strain grown in LB medium at 30° C. was used to inoculate M63 minimal medium supplemented with furanones at 0, 30 or 60 μg/mL to an optical density at 600 nm (OD600) of 0.05 in 96-well plates. The plates were then incubated at 30° C. with shaking at 200 rpm. The reading of OD600 was measured every 60 minutes for six hours using a microplate reader (ELx808, BioTek Instruments). Six replicates were tested for every sample. The synthesis of the brominated furanones, the structures of which are shown in FIGS. 1A and 1B, was according to Example 1.
# [4] = test system: Gloeophyllum trabeum strain GT598; experiment: Fungal growth on MEA plates with furanone; type: cell-based; parameters: key to growth on plate, GT598: −: No growth was observed; +: normal growth was seen; settings: for growth inhibition test, inhibitory concentration, GT598: tested at 1, 5, 30, 60 μg/mL, 7 days; for growth on plate, GT598: 60 μg/mL, 7 days at 30° C.
# Experimental: as §1, §2, §3, §4
# [5] = test system: P. aeruginosa strain PAO1 biofilm formation; experiment: Microplate-based biofilm assay (crystal violet, OD540) of P. aeruginosa; type: cell-based, Pseudomonas aeruginosa; settings: 24 hours
# Experimental: A microplate-based biofilm assay was used to further investigate whether furanones inhibit biofilm formation of P. aeruginosa strain PAO1. For this biofilm assay the strain was grown at 30° C. without shaking in M63 minimal medium containing 13.6 g/L KH2PO4, 2 g/L (NH4)2SO4, 0.5 mg/L FeSO4, 0.12 g/L MgSO4, 5 g/L vitamin free casamino acids and 5 g/L glucose (pH 7.0). The synthesis of the brominated furanones, the structures of which are shown in FIGS. 1A and 1B, was according to Example 1.
# The overnight culture of P. aeruginosa was used to inoculate fresh M63 medium supplemented with furanones (0, 30 or 60 μg/mL) to an OD600 of 0.05 in 96-well plates. Four replicates were tested for each condition. The plates were incubated at 30° C. without shaking for 24 hours. The biofilm mass was quantified by following the protocol described previously. Briefly, the planktonic cells were carefully removed by pipetting and the plates with biofilms were washed three times with deionized H2O and dried by gently patting on a piece of paper towel. To quantify biofilms, the plates were stained with 0.1% crystal violet and incubated for 20 minutes at room temperature. The plates were then washed three times with deionized H2O to remove extra dyes. An OD540 was measured to quantify the biofilm on the bottom of each well.
# [6] = test system: Gloeophyllum trabeum strain GT599; experiment: Fungal growth on MEA plates with furanone; type: cell-based; parameters: key to growth on plate, GT599: −: No growth was observed; +: normal growth was seen; settings: for growth inhibition test, inhibitory concentration, GT599: tested at 1, 5, 30, 60 μg/mL, 7 days; for growth on plate, GT599: 60 μg/mL, 7 days at 30° C.
# Experimental: as §1, §2, §3, §4
# [7] = test system: Chaetomium globosum CG572; experiment: Fungal growth on MEA plates with furanone; type: cell-based; parameters: key to growth on plate, CG572: −: No growth was observed; +: normal growth was seen; settings: for growth inhibition test, inhibitory concentration, CG572: tested at 1, 5, 30, 60 μg/mL, 7 days; for growth on plate, CG572: 60 μg/mL, 7 days at 30° C.
# Experimental: as §1, §2, §3, §4
# [8] = test system: Trametes versicolor strain TV7B2-59; experiment: Fungal growth on MEA plates with furanone; type: cell-based; parameters: key to growth on plate, TV7B2-59: −: No growth was observed; +: normal growth was seen; settings: for growth inhibition test, inhibitory concentration, TV7B2-59: tested at 1, 5, 30, 60 μg/mL, 7 days; for growth on plate, TV7B2-59: 60 μg/mL, 7 days at 30° C.
# Experimental: as §1, §2, §3, §4
# [9] = test system: six fungal strains (Gloeophyllum trabeum, Chaetomium globosum, Trametes versicolor); experiment: Fungal growth on MEA plates with furanone, statements for all six strains; type: cell-based; settings: for growth inhibition of the six fungal strains, comparison: 1 to 60 μg/mL
# Experimental: as §1, §2, §3, §4
# E. coli = E. coli growth inhibition (results not shown); type: cell-based
# [10] = test system: Candida albicans strain SC5341; experiment: C. albicans growth curves in SD medium with furanones (96-well plates, OD600); type: cell-based; settings: tested 2.5, 5, 10, 20 μg/mL
# Experimental: To evaluate the effects of furanones on fungal growth, C. albicans was grown in a synthetic dextrose (“SD”) medium supplemented with 0, 2.5, 5, 10, or 20 μg/mL of one of eight different brominated furanones and […] furanones (BF1, BF8, BF9, BF11, BF12, BF14, NF1, NF2, or NF3).
# The Candida albicans strain SC5341 used in this study was provided by Dr. Sean Palecek from the University of Wisconsin-Madison. C. albicans was routinely grown overnight at 30° C. and shaken at 200 rpm in a SD medium containing 0.67% (wt/vol) yeast nitrogen base without amino acids and 2% (wt/vol) dextrose, which was buffered with 0.165 M morpholinepropanesulfonic acid (MOPS, Sigma), and pH-adjusted to 7.0 with solid NaOH. The overnight culture was then sub-cultured in 25 mL of fresh SD medium to an initial optical density at 600 nm (OD600) of 0.005 and grown till the OD600 reached 1.0. The OD600 values were measured using a Spectronic GENESYS 5 UV-Vis spectrophotometer (Thermo Fisher Scientific®, Waltham, Mass.). This culture was used to inoculate sterile 96-well plates (Costar® No. 9017, Corning®, Corning, N.Y.) containing SD medium supplemented with furanones at different concentrations (0, 2.5, 5, 10, 20 μg/mL) to an OD600 of 0.06 in at least duplicates. The BF1, 8, 9, 11, 12, 14 and NF1-3 compounds were dissolved in ethanol at a concentration of 20 mg/mL. The BF10 compound was dissolved in methanol at a concentration of 20 mg/mL. The amounts of methanol and ethanol were adjusted to be the same for each sample to eliminate the effects of solvents. The samples were then incubated at 30° C. with shaking at 200 rpm, and the OD600 in each well was measured at 0, 4, 7, 17, and 42 hours after inoculation, using an ELx808™ Absorbance Microplate Reader (BioTek Instruments® Inc., Winooski, Vt.).
SMILES,"growth inhibition test, inhibitory concentration, TV57MAD277 [1]","growth inhibition test, inhibitory concentration, CG [2]",inhibitory effect on planktonic growth ([3]; 30 μg/mL),"growth inhibition test, inhibitory concentration, GT598 [4]",inhibition of biofilm formation ([5]; 30 μg/mL),inhibition of biofilm formation ([5]; 60 μg/mL),"growth inhibition test, inhibitory concentration, GT599 [6]","growth inhibition test, inhibitory concentration, CG572 [7]","growth inhibition test, inhibitory concentration, TV7B2-59 [8]",other results
"CC1=C(Br)C(C(Br)Br)OC1=O (stereo not drawn) [BF13, 4-bromo-5-(dibromomethyl)-3-methylfuran-2(5Br)-one]",5 µg/mL,60 µg/mL,did not exhibit significant inhibitory effects,60 µg/mL,significantly inhibited,significantly inhibited,60 µg/mL,60 µg/mL,60 µg/mL,
"O=C1C=C(CBr)C(=O)O1 [BF15, 3-(bromomethyl)-2,5-furandione]",,,,,,,,,,"growth on plate, TV57MAD277 [1]: −; growth on plate, CG [2]: −; growth on plate, GT598 [4]: −; growth on plate, GT599 [6]: −; growth on plate, CG572 [7]: −; growth on plate, TV7B2-59 [8]: −"
"CC1=CC(=O)OC1=O [NF1, Citraconic anhydride; IUPAC: 3-methyl-2,5-furandione, reference compound]",60 µg/mL,60 µg/mL,did not exhibit significant inhibitory effects,60 µg/mL,,,60 µg/mL,60 µg/mL,60 µg/mL,
"O=C1OC(=C(Br)Br)C=C1CBr [BF11, 3-(bromomethyl)-5-(dibromomethylene)furan-2-one]",5 µg/mL,5 µg/mL,,1 µg/mL,significantly inhibited,significantly inhibited,5 µg/mL,5 µg/mL,5 µg/mL,"growth on plate, TV57MAD277 [1]: −; growth on plate, CG [2]: −; reduction of specific growth rate compared to furanone-free control ([3]; 30 μg/mL): 27.3%; reduction of specific growth rate compared to furanone-free control ([3]; 60 μg/mL): 65.0%; growth on plate, GT598 [4]: −; growth on plate, GT599 [6]: −; growth inhibition of the six fungal strains, comparison [9]: most significant inhibition; growth on plate, CG572 [7]: −; growth inhibition of E. coli (E. coli): significantly inhibit; growth on plate, TV7B2-59 [8]: −"
"COC1=CC(=O)OC1 [NF2, 4-Methoxy-2(5H)-furanone; IUPAC: 4-methoxy-2(5H)-furanone, reference compound]",,,,,,,,,,"growth inhibition of the six fungal strains ([9]; 60 μg/mL, 7 days): did not show any apparent inhibition"
"CC1=CC(C)OC1=O (stereo not drawn) [NF3, 3,5-Dimethylfuran-2(5H)-one, reference compound]",,,did not exhibit significant inhibitory effects,,,,,,,
"CC1=C(Br)C(C(Br)Br)OC1=O (stereo not drawn) [BF14, 4-bromo-5-(dibromomethyl)-3-methylfuran-2(5H)-one]",,,did not exhibit significant inhibitory effects,,,,,,,lowest concentration showing growth inhibition [10]: 20 µg/mL; inhibition of biofilm formation ([5]; 30 and 60 μg/mL): non-inhibitory
"O=C1O/C(=C\Br)C(Br)=C1CBr [BF12, 4-bromo-3-(bromomethyl)-5Z-(bromomethylene)furan-2-one]",5 µg/mL,1 µg/mL,,1 µg/mL,significantly inhibited,significantly inhibited,5 µg/mL,5 µg/mL,5 µg/mL,"reduction of specific growth rate compared to furanone-free control ([3]; 30 μg/mL): 91.2%; reduction of specific growth rate compared to furanone-free control ([3]; 60 μg/mL): 100%; growth inhibition of the six fungal strains, comparison [9]: most significant inhibition; growth inhibition of E. coli (E. coli): significantly inhibit"
